Source: EP3057950B1, “PHENYL LINKED QUINOLINYL MODULATORS OF ROR-GAMMA-T” (Janssen Pharmaceutica NV, priority 2013, dated 2015)
Counter-ions that a name gives are not always drawn.

Assays:
[1] = test system: IL-17 production by CD4 T cells; assay: Human Th17 Assay (IL-17 production by CD4 T cells under Th17 differentiation conditions); type: cell-based; details: 72 h, 3 days, IL-17 in supernatant
Protocol: The human Th17 assay tests the effect of RORγt modulatory compounds on IL-17 production by CD4 T cells under conditions which favor Th17 differentiation. Total CD4^+ T cells were isolated from the peripheral blood mononuclear cells (PBMC) of healthy donors using a CD4^+ T cell isolation kit II, following the manufacturer's instructions (Miltenyi Biotec). […] 50 µL of compound at titrated concentrations in DMSO were added into each well at final DMSO concentration at 0.2%. Cells were incubated for 1 hour, then 50 µL of Th17 cell differentiation medium was added to each well. The final concentrations of antibodies and cytokines (R&D Systems) in differentiation medium were: 3x10^6/mL anti-CD3/CD28 beads (prepared using human T cell activation/expansion kit, Miltenyi Biotec), 10 µg/mL anti-IL4, 10 µg/mL anti-IFNγ, 10 ng/mL […], 10 ng/mL IL23, 50 ng/mL IL6, 3 ng/mL TGFβ and 20 U/mL IL2. Cells were cultured at 37 °C and 5% CO2 for 3 days. Supernatants were collected and the accumulated IL-17 in culture was measured by using MULTI-SPOT® Cytokine Plate following manufacture's instruction (Meso Scale Discovery). The plate was read using Sector Imager 6000, and IL-17 concentration was extrapolated from the standard curve. The IC50s were determined by GraphPad.

[2] = biological target: T1, wild type human RORγt ligand binding domain (RORγt LBD) (Homo sapiens, UniProt P51449); assay: RORγt ThermoFluor® Assay (thermal shift, binding affinity); details: pH 7.0, estimated from concentration response curves
T1 construct: His-tag (N); TurboTEV protease cleavage site (ENLYFQG) (N); made in house; host or cells: E. coli (pHIS1, modified pET expression vector)
T1 sequence (P51449 269-508 limits assumed): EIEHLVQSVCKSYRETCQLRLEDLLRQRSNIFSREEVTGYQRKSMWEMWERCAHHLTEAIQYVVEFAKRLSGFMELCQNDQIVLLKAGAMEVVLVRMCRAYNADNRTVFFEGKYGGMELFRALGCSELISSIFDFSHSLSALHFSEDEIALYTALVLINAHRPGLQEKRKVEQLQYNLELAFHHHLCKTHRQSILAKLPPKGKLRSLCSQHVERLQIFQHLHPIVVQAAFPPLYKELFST
Outline: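 Thermal shift assay on 0.065 mg/mL RORγt LBD with 60 µM 1,8-ANS in 100 mM Hepes pH 7.0, 10 mM NaCl, 2.5 mM GSH, 0.002% Tween-20. Heated at 1 °C/min, fluorescence read at 500 nm.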

[3] = biological target: T2, wild type human RORγt LBD (Homo sapiens, UniProt P51449); assay: RORγt Reporter Assay (GAL4-RORγt LBD luciferase in HEK293T cells); type: cell-based; details: HEK293T cells; for IC50: compounds for 24 hours, read-out: RORγt reporter Assay, IC50; for inhibition at 6 µM: HEK-293T, read-out: RORγt reporter Assay, % inhibition @ 6 µM, @ 6 µM
T2 construct: expressed in transfected cells; host or cells: HEK293T
T2 sequence (P51449 269-508 limits assumed): T1 sequence (P51449 269-508 limits assumed)
Outline: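 HEK293T cells transiently co-transfected with GAL4-DBD–human RORγt LBD (or AF2 mutant) and GAL4-responsive firefly luciferase reporter; renilla luciferase normalised transfection and viability. Compounds applied 24 h in 5% lipid-reduced FCS; firefly/renilla ratio plotted against concentration.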

Row | SMILES | IC50 ([1]; Homo sapiens, CD4+ T) [µM] | Kd [2] [µM] | IC50 [3] [µM] | inhibition at 6 µM [3] [%] | RORγt reporter Assay, % inhibition @ 6 µM ([3]; @ 6 µM) [%] | IC50 [1] [µM]
1 | COc1nc2ccc(C(O)(c3cncn3C)C3CCN(C(C)=O)CC3)cc2c(Cl)c1-c1cccc(C(F)(F)F)c1 (single isomer, unassigned) [Example 1b, 1-(4-((4-Chloro-2-methoxy-3-(3-(trifluoromethyl)phenyl)quinolin-6-yl)(hydroxy)(1-methyl-1H-imidazol-5-yl)methyl)piperidin-1-yl)ethanone] | 0.4 | 0.13 | 0.16 | 89 |  | 
2 | COc1c(-c2ccccc2)c(Cl)nc2ccc(C(O)(c3cnnn3C)c3cnc(C)n3C)cc12 (single isomer, unassigned) [Example 40c, (2-Chloro-4-metboxy-3-phenylquinolin-6-yl)(1,2-dimethyl-1H-imidazol-5-yl)(1-methyl-1H-1,2,3-triazol-5-yl)methanol] | 0.21 |  |  |  | 103 | 
3 | Cn1cncc1C(O)(c1ccc2nc(Cl)c(-c3ccccc3)c(Cl)c2c1)c1ncccn1 (centres unmarked) [Example 55, (2,4-Dichloro-3-phenylquinolin-6-yl)(1-methyl-1H-imidazol-5-yl)pyrimidin-2-ylmethanol] |  | 3.3 | ~3 | 70 |  | 
4 | CON(C)c1nc2ccc(C(O)(c3ccc(C(F)(F)F)nc3)c3cncn3C)cc2c(Cl)c1-c1ccccc1 (centres unmarked) [Example 56, {4-Chloro-2-[methoxy(methyl)amino]-3-phenylquinolin-6-yl}(1-methyl-1H-imidazol-5-yl)[6-(trifluoromethyl)pyridin-3-yl]methanol] |  | 0.06 | 0.023 | 102 |  | 
5 | CON(C)c1nc2ccc(C(O)(c3ccc(C(F)(F)F)nc3)c3cncn3C)cc2c(N(C)OC)c1-c1ccccc1 (centres unmarked) [Example 57, {2,4-Bis[methoxy(methyl)amino]-3-phenylquinolin-6-yl}(1-methyl-1H-imidazol-5-yl)[6-(trifluoromethyl)pyridin-3-yl]methanol] |  | 0.58 | 0.69 | 100 |  | 
6 | CON(C)c1nc2ccc(C(O)(c3ccc(Cl)cc3)c3cncn3C)cc2c(Cl)c1-c1ccccc1 (centres unmarked) [Example 58, {4-Chloro-2-[methoxy(methyl)amino]-3-phenylquinolin-6-yl}(4-chlorophenyl)(1-methyl-1H-imidazol-5-yl)methanol] |  | 0.22 | 0.15 | 99 |  | 
7 | COc1nc2c(C)cc(C(O)(c3ccc(C(F)(F)F)nc3)c3cncn3C)cc2c(Cl)c1-c1ccc(OC(F)(F)F)cc1 (centres unmarked) [Example 63, (4-Chloro-2-methoxy-8-methyl-3-(4-(trifluoromethoxy)phenyl)quinolin-6-yl)(1-methyl-1H-imidazol-5-yl)(6-(trifluoromethyl)pyridin-3-yl)methanol] |  | 0.0093 | > 6 | 26 |  | 
8 | Cn1cncc1C(O)(c1ccc(Cl)cc1)c1ccc2nc(Cl)c(-c3ccccc3)c(Cl)c2c1 (centres unmarked) [Example 65, (4-Chlorophenyl)(2,4-dichloro-3-phenylquinolin-6-yl)(1-methyl-1H-imidazol-5-yl)methanol] |  |  |  |  |  | 1.8
9 | Cc1nc(C)c(C(O)(c2ccc3nc(Cl)c(-c4ccccc4)c(Cl)c3c2)c2cncn2C)s1 (centres unmarked) [Example 68, (2,4-Dichloro-3-phenylquinolin-6-yl)(2,4-dimethylthiazol-5-yl)(1-methyl-1H-imidazol-5-yl)methanol] |  |  |  |  |  | 0.02
10 | CN(C)c1nc2ccc(C(c3ccc(Cl)cc3)c3cncn3C)cc2c(Cl)c1-c1ccccc1 (centres unmarked) [Example 71, 4-Chloro-6-((4-chlorophenyl)(1-methyl-1H-imidazol-5-yl)methyl)-N,N-dimethyl-3-phenylquinolin-2-amine] |  | 2.2 | 1.4 | 84 |  | 
11 | Cn1cncc1C(c1ccc(Cl)cc1)c1ccc2nc(C#N)c(-c3ccccc3)c(Cl)c2c1 (centres unmarked) [Example 72, 4-Chloro-6-((4-chlorophenyl)(1-methyl-1H-imidazol-5-yl)methyl)-3-phenylquinoline-2-carbonitrile•TFA] |  | 0.89 | 0.63 | 100 |  | 
12 | OC(c1ccccc1)(c1ccc2nc(Cl)c(-c3ccccc3Cl)c(Cl)c2c1)c1ncco1 (centres unmarked) [Example 74, (2,4-Dichloro-3-(2-chlorophenyl)quinolin-6-yl)(oxazol-2-yl)(phenyl)methanol] |  | 11 | > 6 | 60 |  | 
13 | N#Cc1nc2ccc(C(O)(c3ccc(C(F)(F)F)nc3)c3cccc(Cl)c3)cc2cc1-c1ccccc1 (centres unmarked) [Example 75, 6-((3-Chlorophenyl)(hydroxy)(6-(trifluoromethyl)pyridin-3-yl)methyl)-3-phenylquinoline-2-carbonitrile] |  | 14 | 2.9 | 99 |  | 
14 | N#Cc1nc2ccc(C(O)(c3cccc(Cl)c3)c3ccnc(C(F)(F)F)c3)cc2c(C#N)c1-c1ccccc1 (centres unmarked) [Example 76, 6-((3-Chlorophenyl)(hydroxy)(2-(trifluoromethyl)pyridin4-yl)methyl)-3-phenylquinoline-2,4-dicarbonitrile] |  | 18 | ~2 | 80 |  | 
15 | OC(c1cccc(Cl)c1)(c1ccnc(C(F)(F)F)c1)c1ccc2nc(Cl)c(-c3ccccc3)c(Cl)c2c1 (centres unmarked) [Example 77, (3-Chlorophenyl)(2,4-dichloro-3-phenylquinolin-6-yl)(2-(trifluoromethyl)pyridin-4-yl)methanol] |  | 12 | > 6 | 48 |  | 
16 | CN1CCC(C(O)(c2cccnc2)c2ccc3nc(Cl)c(-c4ccccc4)c(Cl)c3c2)CC1 (centres unmarked) [Example 78, (2,4-Dichloro-3-phenylquinolin-6-yl)(1-methylpiperidin4-yl)(pyridin-3-yl)methanol•TFA] |  | 14 | > 6 | 33 |  | 
17 | CCCCc1c(-c2ccccc2)c(OC(C)C)nc2ccc(C(O)(c3ccncc3)c3cncn3C)cc12 (centres unmarked) [Example 80, (4-Butyl-2-isopropoxy-3-phenylquinolin-6-yl)(1-methyl-1H-imidazol-5-yl)(pyridin4-yl)methanol•TFA] |  | 12 | > 6 | 72 |  | 
18 | CNCCN(C)c1nc2ccc(C(O)(c3ccncc3)c3cncn3C)cc2c(Cl)c1-c1ccccc1 (centres unmarked) [Example 82] |  | 11 | > 6 | 18 |  | 
19 | CN(C)c1nc2ccc(C(O)(c3ccncc3)c3ccccn3)cc2c(Cl)c1-c1ccccc1 (centres unmarked) [Example 84, (4-Chloro-2-(dimethylamino)-3-phenylquinolin-6-yl)(pyridin-2-yl)(pyridin4-yl)methanol•TFA] |  | 17 | 3.5 | 93 |  | 
20 | CN(C)c1c(-c2ccccc2)c(Cl)nc2ccc(C(O)(c3ccccn3)c3cncn3C)cc12 (centres unmarked) [Example 85, (2-Chloro-4-(dimethylamino)-3-phenylquinolin-6-yl)(1-methyl-1H-imidazol-5-yl)(pyridin-2-yl)methanol•TFA] |  | 20 | 3.5 | 81 |  | 
21 | Cc1nc(C)c(C(O)(c2ccc(Cl)cc2)c2ccc3nc(Cl)c(-c4ccccc4)c(Cl)c3c2)s1 (centres unmarked) [Example 87, (4-Chlorophenyl)(2,4-dichloro-3-phenylquinolin-6-yl)(2,4-dimethylthiazol-5-yl)methanol] |  | 12 | > 6 | 56 |  | 
22 | COc1nc2ccc(C(O)(c3ncccn3)c3cncn3C)cc2c(OC)c1-c1ccccc1 (centres unmarked) [Example 88, (2,4-Dimethoxy-3-phenylquinolin-6-yl)(1-methyl-1H-imidazol-5-yl)(pyrimidin-2-yl)methanol] |  | 20 | > 6 | 32 |  | 
23 | OC(c1cccnc1)(c1ccc2nc(Cl)c(-c3ccccc3)c(Cl)c2c1)C1CCNCC1 (centres unmarked) [Example 91, (2,4-Dichloro-3-phenylquinolin-6-yl)(piperidin-4-yl)(pyridin-3-yl)methanol•TFA] |  | 21 | > 6 | 0 |  | 
